US12509460B2 (Skyhawk Therapeutics, Inc., priority 2019, dated 2025)
“And” between values parts separate entries of the source, which are not always exact repeats. Equal entries are not always repeated. Where two headings read alike, the source gives them in different places.

How the values were obtained:
[1] = tested on: SMN protein in spinal muscular atrophy (SMA) patient fibroblasts (GM03813, Coriell); assay: SMN protein assay, Mesoscale Discovery (MSD); type: cell-based, human; conditions: for EC50: read-out: SMN2 protein EC50
Outline: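 Absolute SMN levels were quantified by MSD against an SMN protein standard curve (1 μg/ml to 19.5 pg/ml) run on each plate. Samples were lysates of GM03813 patient fibroblasts (7000 cells/well) treated 48 hours with compound doses from 2.5 μM down to 0.6 nM.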

MDR1 (P-gp) = assay: Blood-brain-barrier (BBB) penetration potential via MDCK-MDR1 permeability assay; conditions: dog; for Papp A→B at 120 min, 5 μM: MDCK-MDR1, pH 7.4, MDCK-MDR1: Papp A-B; for Papp B→A at 120 min, 5 μM: MDCK-MDR1, pH 7.4, MDCK-MDR1: Papp B-A
[2] = tested on: MDR1-MDCK cell monolayers; assay: as above
MDR1 = assay: as above; conditions: dog, MDCK-MDR1, pH 7.4, MDCK-MDR1: Efflux
[3] = tested on: mHTT protein in GM04724 (CAG 70/20) Huntington's disease patient lymphoblast cells; assay: mHTT protein assay, 2B7-MW1 assay via Mesoscale Discovery (MSD); type: cell-based, human
Outline: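 Signal from the 2B7-MW1 antibody pair on MSD, rising with polyQ length and smaller HTT fragments, measured mHTT after 48 h compound exposure (0.6 nM–10 μM) in GM04724 cells. A parallel replicate plate gave CellTiter Glo viability.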

[4] = Quantitative splicing assay (HTT), qPCR; type: cell-based, human; conditions: Homo sapiens, GM04724, 24 h, GM04724 lymphoblasts, qPCR, read-out: HTT Splicing: E49-50 EC50
Procedure: Example A9: Quantitative Splicing Assay (HTT)
GM04724 (CAG 70/20) Huntington's disease patient lymphoblasts (Coriell) are plated in 96-well v-bottom plates at 50,000 cells/well. Immediately after plating, cells are dosed with compound for 24 h at concentrations ranging from 2.5 uM to 0.15 nM (0.1% DMSO). Treated cells are lysed and cDNA synthesized using the Fast Advanced Cells-to-Ct kit (Thermofisher A35378) according to the manufacturer's instructions. 2 uL of each cDNA are used in qPCR reactions to confirm the compound-induced inclusion of a cryptic exon within intron 49 of the Huntingtin (HTT) transcripts. The qPCR reactions are prepared in 384-well plates in 10 uL volume, using TagMan™ Fast Advanced Master Mix [ThermoFisher, 4444965] with primers and probes shown in the table below. Reactions are run in a Quant studio 6 qPCR instrument with default settings.

[5] = tested on: SMN FL and SMN Δ7 in spinal muscular atrophy (SMA) patient fibroblasts (GM03813, Coriell); assay: Quantitative splicing assay (SMN), qPCR; type: cell-based, human; conditions: Homo sapiens, Fibroblast, 24 h, SMA patient fibroblasts (GM03813), 24 h; read-out: SMN2 Splicing FL EC50
Procedure: Spinal muscular atrophy (SMA) patient fibroblasts (GM03813, Coriell) are plated in 96-well plates at 50,000 cells/well. […] Treated cells are lysed and cDNA synthesized using the Fast Advanced Cells-to-Ct kit (Thermofisher A35378) according to the manufacturer's instructions. 2 μL of each cDNA are used in qPCR reactions. […] Reactions are run in a Quant Studio 6 qPCR instrument with default settings.

[6] = SMA patient fibroblasts GM03813, 48 hours, MSD
[7] = GM04724 Huntington's disease patient lymphoblasts
[8] = SMA patient fibroblasts (GM03813), 48 hours
[9] = GM04724 (CAG 70/20) Huntington's disease patient lymphoblasts

Row | Compound | EC50 [1, 6] [nM] | Papp A→B at 120 min, 5 μM (MDR1 (P-gp); A-B direction) [×10⁻⁶ cm/s] | Papp B→A at 120 min, 5 μM (MDR1 (P-gp); B-A direction) [×10⁻⁶ cm/s] | MDCK-MDR1: % Recov A-B ([2]; A-B direction) | MDCK-MDR1: % Recov B-A ([2]; B-A direction) | efflux ratio at 120 min, 5 μM (MDR1; efflux ratio) | EC50 [3, 7] [nM] | EC50 [4] [nM] | EC50 [1, 8] [nM] | EC50 [5] [nM] | Papp A→B at 120 min, 5 μM (MDR1 (P-gp); A-B) [×10⁻⁶ cm/s] | Papp B→A at 120 min, 5 μM (MDR1 (P-gp); B-A) [×10⁻⁶ cm/s] | MDCK-MDR1: % Recov A-B ([2]; A-B) [%] | MDCK-MDR1: % Recov B-A ([2]; B-A) [%] | efflux ratio at 120 min, 5 μM (MDR1) | also measured
1 | Cc1cnc(-c2ccc(-c3ccc(N(C)C4CC5CCC(N5)C4F)nn3)c(O)c2)o1 (single isomer, unassigned) [Compound 48B] | 0.01 to 15 | 6.56 | 24.5 | 67% | 84% | 4 | 16 to 50 | 16 to 50 |  |  |  |  |  |  |  | 
2 | CN(c1ccc(-c2ccc(-c3cnn(C)c3)cc2O)nn1)C1CC2COCC(N2)C1F (single isomer, unassigned) [Compound 80A] | 101 to 500 | 4.93 | 53.6 | 68% | 88% | 11 | 51 to 100 | 51 to 100 |  |  |  |  |  |  |  | 
3 | CN(c1ccc(-c2ccc(-c3cnn(C)c3)cc2O)nn1)[C@@H]1C[C@H]2CC(F)(F)[C@@H](C1)N2 [Compound 3A, 2-(6-(((1S,3R,5R)-6,6-difluoro-8-azabicyclo[3.2.1]octan-3-yl)(methyl)amino)pyridazin-3-yl)-5-(1-methyl-1H-pyrazol-4-yl)phenol] | 16 to 50 | 19.3 | 33.8 | 75% | 81% | 2 | 16 to 50 | 0.01 to 15 |  |  |  |  |  |  |  | 
4 | CN(c1ccc(-c2ccc(-n3nccn3)cc2O)nn1)[C@H]1C[C@@H]2CCC[C@@H](N2)[C@H]1F [Compound 5B, 2-(6-(((1R,2R,3S,5S)-2-fluoro-9-azabicyclo[3.3.1]nonan-3-yl)(methyl)amino)pyridazin-3-yl)-5-(2H-1,2,3-triazol-2-yl)phenol] | 101 to 500 | 5.84 | 9.91 | 30% | 52% | 2 | 0.01 to 15 | 0.01 to 15 |  |  |  |  |  |  |  | 
5 | CN(c1ccc(-c2cc3c(=O)[nH]ccc3s2)nn1)[C@@H]1C[C@H]2CC[C@H](N2)[C@@H]1F [Compound 6A, 2-(6-(((1S,2S,3R,5R)-2-fluoro-8-azabicyclo[3.2.1]octan-3-yl)(methyl)amino)pyridazin-3-yl)thieno[3,2-c]pyridin-4(5H)-one] | 51 to 100 | 0.09 | 6.69 | 90% and 95% | 91% and 82% | 74 |  | 10 to 501 |  |  |  |  |  |  |  | SMN2 protein EC50 [1, 6]: E (501 ≤ E ≤ 10.000); MDCK-MDR1: Papp A-B ([2]; A-B direction): 0.06 10^−6, cm/s; MDCK-MDR1: Papp B-A ([2]; B-A direction): 7.34 10^−6, cm/s; MDCK-MDR1: Efflux ([2]; efflux ratio): 121
6 | CN(c1ccc(-c2ccc(-n3ccnc3)cc2O)nn1)[C@@H]1C[C@H]2CC(F)(F)[C@@H](C1)N2 [Compound 13A, 2-(6-(((1S,3R,5R)-6,6-difluoro-8-azabicyclo[3.2.1]octan-3-yl)(methyl)amino)pyridazin-3-yl)-5-(1H-imidazol-1-yl)phenol] | 0.01 to 15 | 8.7 | 50.5 | 92% | 86% | 6 | 16 to 50 | 0.01 to 15 |  |  |  |  |  |  |  | 
7 | CN(c1ccc(-c2ccc(-c3cnn(C(F)F)c3)cc2O)nn1)[C@@H]1C[C@H]2CC[C@H](N2)[C@@H]1F [Compound 20A, 5-(1-(difluoromethyl)-1H-pyrazol-4-yl)-2-(6-(((1S,2S,3R,5R)-2-fluoro-8-azabicyclo[3.2.1]octan-3-yl)(methyl)amino)pyridazin-3-yl)phenol] | 16 to 50 | 4.68 | 39.9 | 47% | 71% | 9 | 16 to 50 | 16 to 50 |  |  |  |  |  |  |  | 
8 | CN(c1ccc(-c2ccc(-c3cnn(C(F)F)c3)cc2O)nn1)[C@H]1C[C@@H]2CC[C@@H](N2)[C@H]1F [Compound 20B, 5-(1-(difluoromethyl)-1H-pyrazol-4-yl)-2-(6-(((1R,2R,3S,5S)-2-fluoro-8-azabicyclo[3.2.1]octan-3-yl)(methyl)amino)pyridazin-3-yl)phenol] |  | 3.59 | 39.2 | 45% | 65% | 11 | 0.01 to 15 | 0.01 to 15 |  |  |  |  |  |  |  | SMN2 protein EC50 [1, 6]: E (501 ≤ E ≤ 10.000)
9 | CN(c1ccc(-c2cc3c(=O)n(C)cnc3cc2O)nn1)[C@H]1C[C@@H]2CC[C@H]([C@H]1F)N2C [Compound 102B, 6-(6-(((1R,2R,3S,5S)-2-fluoro-8-methyl-8-azabicyclo[3.2.1]octan-3-yl)(methyl)amino)pyridazin-3-yl)-7-hydroxy-3-methylquinazolin-4(3H)-one] |  |  |  |  |  |  |  |  | 16 to 50 | 101 to 500 | 1.63 | 48.1 | 91 | 91 | 30 | EC50 [3, 9]: 51 to 100 nM
10 | CN(c1ccc(-c2cc(F)c(-n3ccnn3)cc2O)nn1)[C@H]1C[C@@H]2CC[C@H]([C@H]1F)N2C [Compound 103B, 4-fluoro-2-(6-(((1R,2R,3S,5S)-2-fluoro-8-methyl-8-azabicyclo[3.2.1]octan-3-yl)(methyl)amino)pyridazin-3-yl)-5-(1H-1,2,3-triazol-1-yl)phenol] |  |  |  |  |  |  |  |  | 51 to 100 | 101 to 500 | 12.6 | 49.1 | 95 | 94 | 4 | mHTT protein EC50 [3, 9]: E (501 ≤ E ≤ 10.000)
11 | CN(c1ccc(-c2cc3oc(C(=O)N4CCC4)cc3cc2O)nn1)[C@H]1C[C@@H]2CC[C@H]([C@H]1F)N2C [Compound 107B, azetidin-1-yl(6-(6-(((1R,2R,3S,5S)-2-fluoro-8-methyl-8-azabicyclo[3.2.1]octan-3-yl)(methyl)amino)pyridazin-3-yl)-5-hydroxybenzofuran-2-yl)methanone] |  |  |  |  |  |  |  |  | 16 to 50 | 101 to 500 | 0.99 | 46.3 | 76 | 84 | 47 | mHTT protein EC50 [3, 9]: E (501 ≤ E ≤ 10.000)
12 | CN(c1ccc(-c2cc3oc(C(=O)N4CCC4)cc3cc2O)nn1)[C@@H]1C[C@H]2CC[C@H](N2)[C@@H]1F [Compound 112A, azetidin-1-yl(6-(6-(((1S,2S,3R,5R)-2-fluoro-8-azabicyclo[3.2.1]octan-3-yl)(methyl)amino)pyridazin-3-yl)-5-hydroxybenzofuran-2-yl)methanone] |  |  |  |  |  |  |  |  | 0.01 to 15 | 51 to 100 | 0.6 | 43.8 | 95 | 78 | 74 | EC50 [3, 9]: 51 to 100 nM
13 | Cc1nc2cc(-c3ccc(N(C)[C@H]4C[C@@H]5CC[C@@H](N5)[C@H]4F)nn3)c(O)cc2c(=O)n1CC(F)(F)F [Compound 113B, 7-(6-(((1R,2R,3S,5S)-2-fluoro-8-azabicyclo[3.2.1]octan-3-yl)(methyl)amino)pyridazin-3-yl)-6-hydroxy-2-methyl-3-(2,2,2-trifluoroethyl)quinazolin-4(3H)-one] |  |  |  |  |  |  |  |  | 0.01 to 15 | 16 to 50 | 0.3 | 68.4 | 101 | 123 | 232 | EC50 [3, 9]: 101 to 500 nM
